Laboratory results from article PMC5618429, “Kempopeptin C, a Novel Marine-Derived Serine Protease Inhibitor Targeting Invasive Breast Cancer” (Marine Drugs, 2017).

How the values were obtained:
[1] = target: T1, trypsin from porcine pancreas (Sus scrofa, UniProt P00761); experiment: Trypsin inhibition assay; format: biochemical; conditions: mean ± SD, n = 3; 30-min preincubation; read-out: IC50 against trypsin
T1 construct: purchased Sigma T0303; host or cells: porcine pancreas
Procedure: The trypsin inhibition assay was carried out at room temperature by incubating 10 µL of trypsin from porcine pancreas (T0303, Sigma, St. Louis, MO, USA) (100 µM prepared in assay buffer) with 39 µL of assay buffer (50 mM Tris-HCl, 100 mM NaCl, 1 mM CaCl2; pH 7.8) in the presence of 1 µL of different concentrations of inhibitors (2 and 3; half log dilutions prepared in DMSO) or the solvent control. After a 30-min incubation time, 50 µL of the 1.5 mM substrate: Nα-benzoyl-DL-arginine-4-nitroanilide (prepared as 2 mM stock solution in DMF and further diluted to 1.5 mM in assay buffer) were added to each well. The reaction was monitored by measuring the absorbance at 405 nm every 30 s for 30 min using SpectraMax M5 plate reader (Molecular Devices, Sunnyvale, CA, USA).

[2] = test system: CDCP1 cleavage in MDA-MB-231 cells; experiment: Cleavage of CDCP1 in MDA-MB-231 cells (Western blot); format: cell-based
Procedure: The experiment was performed by treating MDA-MB-231 cells with different concentrations of either kempopeptin B (2) or C (3) for 72 h (Figure 6A). Dexamethasone (Dex) 100 nM was used as a positive control.
Figure 6 The effect of kempopeptins B and C (2 and 3) on CDCP1 cleavage in MDA-MB-231. (A) MDA-MB-231 cells were treated for 72 h with different concentrations of the test compounds. Following 72 h, the lysates were collected and analyzed by Western blot. (B) MDA-MB-231 cells were treated at different time points with 100 µM of kempopeptin C (3). Following 6 h, 12 h and 24 h, the lysates were collected and analyzed by Western blot. Dexamethasone (Dex) was used as a positive control. (C) MDA-MB-231 cells treated for 24 h with different concentrations of 3 in the presence of 10 nM recombinant human matriptase. Cell lysates were harvested and analyzed by Western blot. (D) Densitometric analysis of the full-length, LMW of CDCP1 and actin bands in (C).
MDA-MB-231 cells (150,000 cells/well) were seeded in 12-well plates. After 24 h, the media were replaced, and cells were treated with different concentrations of inhibitors (2 or 3; prepared in DMSO), the solvent control or the positive control dexamethasone. Whole-cell protein lysates were collected after 6, 12, 24 and 72 h using PhosphoSafe lysis buffer (Novagen, Madison, USA) and the protein concentration measured using the BCA Protein Assay kit (Pierce; 23227; Thermofisher Scientific; Waltham, MA, USA). Twenty micrograms of protein were separated by SDS-PAGE, transferred to polyvinylidene difluoride (PVDF) membranes, probed with CDCP1 antibody (Cell Signaling; 4115S) and detected with SuperSignal West Femto Maximum Sensitivity Substrate (Pierce).

[3] = target: T2, recombinant human matriptase (Homo sapiens, UniProt Q9Y5Y6); experiment: Matriptase inhibition assay; format: biochemical; conditions: mean ± SD, n = 3; 15-min preincubation; read-out: IC50 against matriptase
T2 construct: purchased R&D Systems 3946-SE-010
T2 sequence (Q9Y5Y6 615-855 limits assumed): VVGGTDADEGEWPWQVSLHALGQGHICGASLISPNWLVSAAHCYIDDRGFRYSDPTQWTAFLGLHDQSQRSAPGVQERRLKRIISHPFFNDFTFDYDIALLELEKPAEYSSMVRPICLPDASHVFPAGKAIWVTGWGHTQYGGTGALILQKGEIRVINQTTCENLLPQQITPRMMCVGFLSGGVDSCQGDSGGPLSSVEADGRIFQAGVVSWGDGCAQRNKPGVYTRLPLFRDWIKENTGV
Procedure: In matriptase inhibition assay, 50 µL of recombinant human matriptase (R&D Systems, Minneapolis, MN, USA; 3946-SE-010) ([…] prepared in assay buffer: 50 mM Tris, 50 mM NaCl, 0.01% Tween 20; pH 9.0) and 1 µL of different concentrations of inhibitors (2 and 3; half log dilutions prepared in DMSO) or the solvent control were pre-incubated at room temperature for 15 min. Following the incubation period, 50 µL of the 50 µM substrate solution (Boc-Gln-Ala-Arg-AMC) (R&D Systems, Minneapolis, MN, USA; ES014) were added to each well, and the enzyme activity was monitored by measuring the increase in fluorescence signal from the fluorescently-labeled substrate every 30 s for 30 min (Ex 380 nm, Em 460 nm) using the SpectraMax M5 plate reader (Molecular Devices).

T1 sequence (P00761 9-231): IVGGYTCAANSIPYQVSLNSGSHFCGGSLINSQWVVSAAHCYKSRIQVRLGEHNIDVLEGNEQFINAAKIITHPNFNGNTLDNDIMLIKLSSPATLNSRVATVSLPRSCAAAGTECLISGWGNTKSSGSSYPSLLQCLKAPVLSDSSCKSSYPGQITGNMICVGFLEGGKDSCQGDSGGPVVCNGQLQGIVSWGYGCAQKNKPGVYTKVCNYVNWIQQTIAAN

CCCC(=O)NC(C(=O)NC1C(=O)NC(CCCCN)C(=O)NC2CCC(O)N(C2=O)C(C(C)CC)C(=O)N(C)C(Cc2ccc(OC)c(Cl)c2)C(=O)NC(C(C)C)C(=O)OC1C)C(C)C (stereo not shown) [Kempopeptin C, kempopeptin C]
IC50 [1]: 0.19 ± 0.05 µM | Inhibition of CDCP1 cleavage in MDA-MB-231 ([2]; 100 µM, 6, 12 and 24 h): no inhibition of CDCP1 cleavage was detected | Inhibition of CDCP1 cleavage in MDA-MB-231 ([2]; 72 h, different concentrations): No inhibition of CDCP1 cleavage was observed | IC50 [3]: 0.28 ± 0.03 µM
